Patent publication US20230202992A1, “PHARMACEUTICAL COMPOSITION FOR PREVENTING OR TREATING SMALL-CELL LUNG CANCER ASSOCIATED WITH RON MUTANTS AND METHOD USING SAME” (WELLMARKER BIO CO., LTD., priority 2020, published 2023)

Key:
[1] = system: H417 cell line (small cell lung cancer cell line of a mutation RONΔ155 type); test: Cell killing efficacy in small cell lung cancer cell line (PI staining, FACS); format: cell-based; details: H417 cells (mRONΔ155), 1 μM, 72 hours, propidium iodide, FIG. 1
Experimental: The H417 cell line, which is a small cell lung cancer cell line of a mutation RONΔ155 type, was counted, and 2×10^5 cells were seeded in a 60 mm dish, respectively, and 24 hours later, treated with 1 μM of each of the compounds synthesized in Example 1 (WM-S1-030), Example 2, Example 3, Example 4, and Example 5 for 72 hours. As a positive control, a known RON inhibitor, BMS-777607 compound (1 μM), was used. BMS-777607 is N-{4-[(2-amino-3-chloro-4-pyridinyl)oxy]-3-fluorophenyl}-4-ethoxy-1-(4-fluorophenyl)-2-oxo-1,2-dihydro-3-pyridinecarboxamide, which is compound 1 disclosed in U.S. Pat. No. 8,536,200 B2. BMS-777607 is a well known RON inhibitor.
After 72 hours, all of the medium was transferred to a 15 mL conical tube and washed once with 1×PBS (phosphate buffered saline), and then the cells were harvested. Thereafter, the supernatant was removed by centrifugation at 1,000 rpm for 3 minutes, and propidium iodide (PI) was diluted in a FACS (Fluorescence-Activated Cell Sorting) buffer (PBS+2% FBS) at a ratio of 1:1000. The prepared buffer was added adequately depending on the number of cells, and then it was transferred to a FACS tube and reacted for 10 minutes. Thereafter, it was measured using a cytometer (FACS Analyzer).

[2] = system: H417 cell line (mRONΔ155) transplanted tumor; test: Tumor growth inhibition in H417 cell line transplanted animal model; format: in vivo, mouse; details: BALB/c-nude mice transplanted with H417, 30 mpk, oral, once a day for 3 weeks; FIG. 2
Experimental: It was confirmed whether tumor growth was inhibited by administering WM-S1-030 synthesized in Example 1 above at a dose of 30 mpk to a mouse model transplanted with the H417 cell line, which is a small cell lung cancer cell line of a mutation RONΔ155 type. Specifically, 5-week-old female BALB/c-nude mice were purchased and acclimatized for 1 week. Thereafter, H417 (5×10^6 cells/mouse), a small cell lung cancer cell line of a mutation RONΔ155 type, was diluted in PBS (phosphate buffered saline), and 100 μL was injected subcutaneously into the right dorsal side of the mouse. When the size of the tumor reached about 100 mm^3, WM-S1-030 was orally administered. At this time, the group orally administered with the vehicle was used as a negative control. The drug was administered once a day for 3 weeks, and the tumor size and body weight were measured twice a week. After the drug administration was completed, the mice were euthanized, the tumor was extracted, and the weight was measured.

cleaved caspase-3 = test: Protein expression change in tumor tissue of H417 transplanted animal model, immunochemical staining; format: in vivo; details: H417 transplanted mouse model, 3 mpk, 10 mpk, 30 mpk, FIG. 3
Experimental: (§1) WM-S1-030 synthesized in Example 1 above was administered at each concentration (3 mpk, 10 mpk, 30 mpk) to a mouse model transplanted with the H417 cell line, which is a small cell lung cancer cell line of a mutation RONΔ155 type, and then the tumor was extracted, and the expression changes of the proteins were analyzed by immunochemical staining.
(§2) Specifically, paraffin slides were prepared using tissues isolated from the sacrificed mice. The tissue sections were deparaffinized and rehydrated, immersed in the target recovery buffer 1×(ScyTek Laboratories, Cat #CBB999) and heated for 15 minutes to perform an antigen recovery process. After the reaction, the tissue sections were washed in Tris buffered saline-0.05% Tween 20 (TBS-T)(T&I, BTT-9310) for 5 minutes, and then the reaction was performed with a non-specific antibody reaction blocking reagent (vector, SP-5035) for 1 hour.
(§3) The tissue sections were cultured at 4° C. overnight with mRON (Abcam, ab52927, 1:50), pTyr-mRON (Mybioscience, MBS462024, 1:100), cleaved caspase-3 (Asp175XR&D Systems, MAB835, 1:50) and then washed with TBS-T for 5 minutes, and then endogenous peroxidase activity was blocked using a peroxidase blocking reagent (Cellmarque, 925B-05). Thereafter, the tissue sections were washed with TBS-T for 5 minutes and then incubated with a rabbit secondary antibody (vector, PK-6101) at room temperature for 1 hour. […]

pTyr-mRON = test: as above; format: in vivo; details: H417 transplanted mouse model, 3 mpk, 10 mpk, 30 mpk, FIG. 3
Experimental: as §1, §2, §3

| Compound | cell death (cell killing efficacy) [1] | tumor growth [2] | expression of cleaved caspase-3 (cleaved caspase-3) | expression of pTyr-mRON (pTyr-mRON) |
| --- | --- | --- | --- | --- |
| CCOc1ccn(-c2ccc(F)cc2)c(=O)c1C(=O)Nc1ccc(Oc2ccnc(N)c2Cl)c(F)c1 [BMS-777607, N-{4-[(2-amino-3-chloro-4-pyridinyl)oxy]-3-fluorophenyl}-4-ethoxy-1-(4-fluorophenyl)-2-oxo-1,2-dihydro-3-pyridinecarboxamide] | low | – | – | – |
| CCOc1ccn(-c2ccc(F)cc2)c(=O)c1C(=O)Nc1ccc(Oc2ccnc3cc(-c4ccc(CN5CCOCC5)cn4)sc23)c(F)c1.Cl [Example 1, 4-ethoxy-N-[3-fluoro-4-({2-[5-(morpholinomethyl)pyridin-2-yl]thieno[3,2-b]pyridin-7-yl}oxy)phenyl]-1-(4-fluorophenyl)-2-oxo-1,2-dihydropyridine-3-carboxamide hydrochloride] | – | significantly inhibited | induced | decreased |
